From PMC11714206, “Massively Parallel Screening of Toll/Interleukin‐1 Receptor (TIR)‐Derived Peptides Reveals Multiple Toll‐Like Receptors (TLRs)‐Targeting Immunomodulatory Peptides” (Advanced Science, 2024)

Target: T1, MyD88^TIR (Homo sapiens, UniProt Q99836)
T1 construct: MyD88 (residues 148–296); 6xHis; made in house; host or cells: E. coli BL21 (DE3)
Test: T‐Surf phage library (P8 and P3) selection against MyD88^TIR, four rounds, NGS read counts
Assay type: binding
Details: for P3_MyD88 Rank (after) / P3_MyD88 Rank (before): P3 library; for P8_MyD88 Rank (after) / P8_MyD88 Rank (before): P8 library; for Population: P8_MyD88 pool: P8 T-Surf phage library, 4th round of selection against MyD88 TIR, share of NGS reads
Procedure: T‐Surf libraries were screened against the immobilized TIR domains of two major human TLR adaptor proteins, MAL^TIR and MyD88^TIR, allowing cross‐species selection of TIR‐binding motifs with 190 946 TIR‐derived peptides in a single binding assay (Scheme 1). Enriched phage pools from the fourth round of selection were analyzed using NGS after barcoding the peptide‐coding regions of the phage pools.
Phage display screening was performed by coating two wells of a 96‐well plate (Maxisorp, Thermo Fisher Scientific) with 100 µL of 5 µg mL^−1 TIR domains overnight; then, the coated wells were blocked with 200 µL of blocking buffer (0.2% BSA in PBS) and set aside for 1 h at 4 °C with gentle shaking. Next, 100 µL of the phage library was added to the wells and incubated for 1 h at room temperature (RT; 20 – 22 °C) with gentle shaking. The plate was washed four times with PBS containing 0.5% Tween‐20; the bound phages were eluted by adding 100 µL of 100 mM HCl to each well. The elute was neutralized with 10 µL of 1.0 M Tris‐HCl (pH 11.0). E. coli TG1 cells were grown to the log phase (A600 = ≈0.6), and 1 mL of the culture was incubated with 100 µL of the eluted phages for 30 min at 37 °C, with shaking at 200 rpm. Next, 1 µL of M13KO7 helper phages was added, followed by incubation for 45 min at 37 °C, with shaking. Subsequently, the cells were transferred to 25 mL of 2× yeast extract tryptone/carbenicillin/kanamycin medium and incubated overnight at 37 °C with shaking at 200 rpm. The amplified phages were precipitated with 20% PEG‐8000/2.5 M NaCl to be used for the next round of selection.
The naïve T‐Surf libraries in P8 and P3 and the enriched phage pools after four rounds were barcoded for NGS as previously described.^[ [59] ^] Briefly, 5 µL of the phage pool was used as a template for 20 cycles of a 50 µL PCR reaction using […] each of forward and reverse barcoded primers and PrimeSTAR Max DNA Polymerase. The PCR products were purified using Expin Gel SV (GeneAll). The NGS samples were quantified using qPCR, following the qPCR Quantification Protocol Guide (KAPA Library Quantification kits for Illumina Sequencing Platform), and qualified using the TapeStation High Sensitivity D1000 ScreenTape (Agilent Technologies). The indexed libraries were further sequenced by Macrogen (Seoul, Republic of Korea) using the NovaSeq platform (Illumina) with 100 bp paired‐end reads. The reads were demultiplexed by barcodes and filtered for an average Phred quality score of at least 30, followed by trimming the flanking consensus sequences using Cutadapt (version 2.3). Peptide sequence populations were analyzed according to the read counts.

[1] = P3_MyD88: rank by count after grouping
[2] = P3_MyD88: rank by count before grouping
[3] = selection against MyD88, rank after grouping
[4] = selection against MyD88, rank before grouping
[5] = selection against MyD88 TIR, rank by count after grouping
[6] = selection against MyD88 TIR, rank by count before grouping
[7] = 4R selection against MyD88, rank after grouping
[8] = 4R selection against MyD88, rank before grouping
[9] = selection against MyD88, rank by count after grouping
[10] = selection against MyD88, rank by count before grouping
[11] = P8_MyD88: rank by NGS read count after grouping
[12] = P8_MyD88: rank by NGS read count before grouping
[13] = P8_MyD88: rank by count after grouping
[14] = P8_MyD88: rank by count before grouping

T1 sequence (Q99836 148-296): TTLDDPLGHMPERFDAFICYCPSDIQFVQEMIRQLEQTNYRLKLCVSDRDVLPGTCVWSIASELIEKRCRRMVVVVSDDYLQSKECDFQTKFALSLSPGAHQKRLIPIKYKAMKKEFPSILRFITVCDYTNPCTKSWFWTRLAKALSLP

Sequence: DHHLDLPSGKAIKPDILG
- Rank (after) [1]: 107
- Rank (before) [2]: 2044

Sequence: DHHLDLPWGKAKKPEILG
- P3_MyD88 Rank (after) [3]: 487
- P3_MyD88 Rank (before) [4]: 1999

Sequence: DHHLDLSRGKAIKPAILG
- P3_MyD88 Rank (after) [5]: 236
- P3_MyD88 Rank (before) [6]: 1997

Sequence: DHHLDLSRGKSIKPDILG
- Rank (after) [1]: 435
- Rank (before) [2]: 2053

Sequence: DHHLICRVAKRLNRKFW
- Rank (after) [1]: 129
- Rank (before) [2]: 631

Sequence: DHHLNLPRGKSVKPEILG
- P3_MyD88 Rank (after) [7]: 652
- P3_MyD88 Rank (before) [8]: 2057

Sequence: DHHMDLPRDTAIKPEILG
- P3_MyD88 Rank (after) [7]: 661
- P3_MyD88 Rank (before) [8]: 2060

Sequence: DHHMDLTRGKAIKPEILG
- P3_MyD88 Rank (after) [7]: 616
- P3_MyD88 Rank (before) [8]: 2061

Sequence: DHLDPSHLRKQSGEFG
- P3_MyD88 Rank (after) [9]: 734
- P3_MyD88 Rank (before) [10]: 1991

Sequence: DHQLDLPRCKAIKPEILG
- P3_MyD88 Rank (after) [3]: 482
- P3_MyD88 Rank (before) [4]: 2062

Sequence: DIADEDLPYLIRLLYSL
- Rank (after) [11]: 955
- Rank (before) [12]: 3056

Sequence: DIEYIHLFWDRLLYSL
- P8_MyD88 Rank (after) [3]: 526
- P8_MyD88 Rank (before) [4]: 3060

Sequence: DIQWALQKLMQIMEAF
- P8_MyD88 Rank (after) [9]: 676
- P8_MyD88 Rank (before) [10]: 3070

Sequence: DIVAYVMQKLMKHQVF
- Rank (after) [13]: 154
- Rank (before) [14]: 169
- Population: 0.00848%

Sequence: DLCDILSQNGIPTFFD
- P8_MyD88 Rank (after) [3]: 534
- P8_MyD88 Rank (before) [4]: 2582

Sequence: DLLLCVFQTFFARLTE
- Rank (after) [11]: 948
- Rank (before) [12]: 2592

Sequence: DLLLSEFQSIFARRTV
- P8_MyD88 Rank (after) [3]: 531
- P8_MyD88 Rank (before) [4]: 2593

Sequence: DLLRHLIEAFSRMHIN
- Rank (after) [11]: 940
- Rank (before) [12]: 2389

Sequence: DLLVLEWFYERVFSQM
- P8_MyD88 Rank (after) [9]: 713
- P8_MyD88 Rank (before) [10]: 2590

Sequence: DLQDLDWFYERLVSLL
- P8_MyD88 Rank (after) [5]: 206
- P8_MyD88 Rank (before) [6]: 2595

Sequence: DLQDVGWFLSKLSQHI
- Rank (after) [13]: 172
- Rank (before) [14]: 203

Sequence: DLVCDYLLPNLEGAAG
- P8_MyD88 Rank (after) [3]: 537
- P8_MyD88 Rank (before) [4]: 2385

Sequence: DLVWDYLLPNLAGPAG
- Rank (after) [11]: 967
- Rank (before) [12]: 2386

Sequence: DLVWDYLLPNLEGPAG
- Population: 0.00886%

Sequence: DLYDILYLYGRHTIFV
- Rank (after) [11]: 881
- Rank (before) [12]: 2584

Sequence: DMQDIEWFYVKLIVSI
- P8_MyD88 Rank (after) [9]: 754
- P8_MyD88 Rank (before) [10]: 3064

Sequence: DPHDLDWFYERLVSLL
- Rank (after) [13]: 143
- Rank (before) [14]: 1072

Sequence: DPHDLEWVYERLVSLF
- Rank (after) [11]: 913
- Rank (before) [12]: 2603

Sequence: DPHDLQWLYERLVSLI
- Rank (after) [11]: 985
- Rank (before) [12]: 2634

Sequence: DPHDLVWFYERLVSLF
- P8_MyD88 Rank (after) [5]: 230
- P8_MyD88 Rank (before) [6]: 2631

Sequence: DPHDPQWFYERLVRLI
- P8_MyD88 Rank (after) [3]: 495
- P8_MyD88 Rank (before) [4]: 3035

Sequence: DPHGLEWIYERLVSLF
- Rank (after) [11]: 923
- Rank (before) [12]: 2629

Sequence: DPHQHQAFWDRLWEKL
- P8_MyD88 Rank (after) [5]: 286
- P8_MyD88 Rank (before) [6]: 560

Sequence: DPKALQWFYERLVSLI
- P8_MyD88 Rank (after) [3]: 562
- P8_MyD88 Rank (before) [4]: 3042

Sequence: DPKDLQWFYERLVSLF
- Rank (after) [11]: 1027
- Rank (before) [12]: 3043

Sequence: DPLALEWYYERPFSQM
- P8_MyD88 Rank (after) [3]: 559
- P8_MyD88 Rank (before) [4]: 2612

Sequence: DPLGQVRLSFRLFRQI
- P8_MyD88 Rank (after) [9]: 748
- P8_MyD88 Rank (before) [10]: 2610

Sequence: DPLHLDWHYERLVSTD
- P8_MyD88 Rank (after) [9]: 680
- P8_MyD88 Rank (before) [10]: 2615

Sequence: DPLVMVWLYVRPVSLF
- P8_MyD88 Rank (after) [3]: 556
- P8_MyD88 Rank (before) [4]: 2609

Sequence: DPMVAEWVLNHLRFEL
- P8_MyD88 Rank (after) [5]: 193
- P8_MyD88 Rank (before) [6]: 246

Sequence: DPPDLDWCYQRLVNLP
- Rank (after) [11]: 1026
- Rank (before) [12]: 2628

Sequence: DPPELDWFYERLFSLF
- Rank (after) [11]: 971
- Rank (before) [12]: 2627

Sequence: DPPLLHGLYERLVILF
- P8_MyD88 Rank (after) [3]: 485
- P8_MyD88 Rank (before) [4]: 2602

Sequence: DPPVLEWFYESLFSQM
- P8_MyD88 Rank (after) [7]: 601
- P8_MyD88 Rank (before) [8]: 2624

Sequence: DPQALAWFYERLVSLF
- P8_MyD88 Rank (after) [5]: 256
- P8_MyD88 Rank (before) [6]: 2682

Sequence: DPQALDWFYERLVRLF
- P8_MyD88 Rank (after) [5]: 279
- P8_MyD88 Rank (before) [6]: 2689

Sequence: DPQALDWLYERLVSLF
- P8_MyD88 Rank (after) [5]: 203
- P8_MyD88 Rank (before) [6]: 2685

Sequence: DPQARDCFYERLVSLF
- Rank (after) [13]: 476
- Rank (before) [14]: 2687

Sequence: DPQDEDWLYERLGGLF
- P8_MyD88 Rank (after) [9]: 712
- P8_MyD88 Rank (before) [10]: 2696

Sequence: DPQDHYLLYERLVSLF
- Rank (after) [11]: 934
- Rank (before) [12]: 2964

Sequence: DPQDLALFYERLVSLF
- P8_MyD88 Rank (after) [5]: 251
- P8_MyD88 Rank (before) [6]: 2727

Sequence: DPQDLARSYERLVRLF
- P8_MyD88 Rank (after) [7]: 610
- P8_MyD88 Rank (before) [8]: 2690

Sequence: DPQDLAWFSERLVSQF
- P8_MyD88 Rank (after) [3]: 551
- P8_MyD88 Rank (before) [4]: 2728

Sequence: DPQDLAWFYASQSSQM
- P8_MyD88 Rank (after) [3]: 500
- P8_MyD88 Rank (before) [4]: 2997

Sequence: DPQDLAWFYERLVSLF
- Population: 0.00617%

Sequence: DPQDLAWSYERLVSLF
- P8_MyD88 Rank (after) [5]: 255
- P8_MyD88 Rank (before) [6]: 2732

Sequence: DPQDLAWVYERLVSPV
- P8_MyD88 Rank (after) [7]: 628
- P8_MyD88 Rank (before) [8]: 2733

Sequence: DPQDLDCFDERLGSRV
- P8_MyD88 Rank (after) [7]: 627
- P8_MyD88 Rank (before) [8]: 2697

Sequence: DPQDLDCFYERLVNLF
- Rank (after) [13]: 408
- Rank (before) [14]: 2740

Sequence: DPQDLDCFYERLVSLL
- Rank (after) [13]: 169
- Rank (before) [14]: 1082

Sequence: DPQDLDCYYERLVSLF
- Rank (after) [11]: 1004
- Rank (before) [12]: 2741

Sequence: DPQDLDGCYERLVSLF
- Rank (after) [13]: 393
- Rank (before) [14]: 2837

Sequence: DPQDLDLFYERLVRLF
- P8_MyD88 Rank (after) [5]: 261
- P8_MyD88 Rank (before) [6]: 2737

Sequence: DPQDLDLFYERLVSMF
- P8_MyD88 Rank (after) [7]: 673
- P8_MyD88 Rank (before) [8]: 2739
